In patent publication US7943770B2, “Fused quinoline derivative and use thereof” (Takeda Pharmaceutical Company Limited, priority 2004, dated 2011) one finds IC50 data, which are given here for 23 compounds.

For the assay, the target named is T1, hNK2 receptor (Homo sapiens, UniProt P21452).
T1 construct: host or cells: CHO cells
T1 sequence (P21452 1-398): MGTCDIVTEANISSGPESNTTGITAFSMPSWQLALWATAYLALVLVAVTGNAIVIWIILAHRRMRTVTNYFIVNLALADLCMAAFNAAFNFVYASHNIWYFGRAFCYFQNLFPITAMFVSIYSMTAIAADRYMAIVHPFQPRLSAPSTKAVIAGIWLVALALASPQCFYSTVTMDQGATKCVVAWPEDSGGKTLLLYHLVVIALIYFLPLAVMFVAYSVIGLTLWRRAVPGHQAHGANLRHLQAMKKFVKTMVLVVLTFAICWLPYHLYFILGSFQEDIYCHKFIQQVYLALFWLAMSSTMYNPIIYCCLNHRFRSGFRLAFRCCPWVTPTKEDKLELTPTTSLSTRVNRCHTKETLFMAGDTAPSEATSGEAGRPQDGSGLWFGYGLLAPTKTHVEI
The assay can be described thus: Radio-ligand ([125I]-NKA) receptor binding inhibitory activity using membrane fraction of hNK2 receptor-expressing CHO cell. The following applies: membrane fraction of hNK2 receptor-expressing CHO cells, 25° C., 30 min. The method, boiled down: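 Inhibition of [125I]-NKA binding ([…] solution added) measured after 30 min at 25 °C using hNK2-CHO membrane fraction (20 μg/mL suspension) in pH 7.4 Tris buffer containing MnCl2, BSA and protease inhibitors. Filter-bound counts read; activity calculated as fraction of specific binding, non-specific defined with unlabeled NKA.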
The IC50 is the concentration needed to halve the response being measured. Higher therefore signals weaker potency. With `O=C(Nc1ccc2c(c1)OCO2)N[C@@H]1CCCC[C@@H]1C(=O)N1CC[C@@H]2[C@H](c3ccccc3)Nc3ccccc3[C@@H]21` [Example 148, N-1,3-Benzodioxol-5-yl-N′-((1R,2S)-2-{[(3aR,4R,9bR)-4-phenyl-2,3,3a,4,5,9b-hexahydro-1H-pyrrolo[3,2-c]quinolin-1-yl]carbonyl}cyclohexyl)urea], the half-inhibitory concentration (IC50) was less than 1 nM.
The same measure for `CCNC(=O)N[C@@H]1CCCC[C@@H]1C(=O)N1CC[C@@H]2[C@H](C3CC3)Nc3ccccc3[C@@H]21` [Example 185, N-((1R,2S)-2-{[(3aR,4S,9bR)-4-Cyclopropyl-2,3,3a,4,5,9b-hexahydro-1H-pyrrolo[3,2-c]quinolin-1-yl]carbonyl}cyclohexyl)-N′-ethylurea]: less than 10 nM; for `COC[C@@H]1Nc2ccccc2[C@H]2[C@@H]1CCN2C(=O)[C@H]1CCCC[C@H]1NC(=O)c1ccc(N2CCCCC2)nc1` [Example 254, N-((1R,2S)-2-{[(3aR,4R,9bR)-4-(Methoxymethyl)-2,3,3a,4,5,9b-hexahydro-1H-pyrrolo[3,2-c]quinolin-1-yl]carbonyl}cyclohexyl)-6-piperidin-1-ylnicotinamide]: less than 1 nM.
Regarding `COC[C@@H]1Nc2ccccc2[C@H]2[C@@H]1CCN2C(=O)[C@H]1CCCC[C@H]1NC(=O)c1ccc(-n2cccn2)cc1` [Example 264, N-((1R,2S)-2-{[(3aR,4R,9bR)-4-(Methoxymethyl)-2,3,3a,4,5,9b-hexahydro-1H-pyrrolo[3,2-c]quinolin-1-yl]carbonyl}cyclohexyl)-4-(1H-pyrazol-1-yl)benzamide], the IC50 was less than 1 nM.
The same measure for `COC[C@@H]1Nc2ccccc2[C@H]2[C@@H]1CCN2C(=O)[C@H]1CCCC[C@H]1NC(=O)c1ccc(-c2csc(C)n2)cc1` [Example 261, N-((1R,2S)-2-{[(3aR,4R,9bR)-4-(Methoxymethyl)-2,3,3a,4,5,9b-hexahydro-1H-pyrrolo[3,2-c]quinolin-1-yl]carbonyl}cyclohexyl)-4-(2-methyl-1,3-thiazol-4-yl)benzamide]: less than 1 nM.
The result for `CCOCCNC(=O)N[C@@H]1CCCC[C@@H]1C(=O)N1CC[C@@H]2[C@H](c3ccccc3)Nc3ccccc3[C@@H]21` [Example 162, N-(2-Ethoxyethyl)-N′-((1R,2S)-2-{[(3aR,4R,9bR)-4-phenyl-2,3,3a,4,5,9b-hexahydro-1H-pyrrolo[3,2-c]quinolin-1-yl]carbonyl}cyclohexyl)urea] reads less than 10 nM.
The result for `COC[C@@H]1Nc2ccccc2[C@H]2[C@@H]1CCN2C(=O)[C@H]1CCCC[C@H]1NC(=O)c1ccc(N2CCOCC2)cc1` [Example 268, N-((1R,2S)-2-{[(3aR,4R,9bR)-4-(Methoxymethyl)-2,3,3a,4,5,9b-hexahydro-1H-pyrrolo[3,2-c]quinolin-1-yl]carbonyl}cyclohexyl)-4-morpholin-4-benzamide] reads less than 10 nM; that for `COC[C@@H]1Nc2ccccc2[C@H]2[C@@H]1CCN2C(=O)[C@H]1CCCC[C@H]1NC(=O)Nc1ccc(C#N)cc1` [Example 217, N-(Cyanophenyl)-N′-((1R,2S)-2-{[(3aR,4R,9bR)-4-(methoxymethyl)-2,3,3a,4,5,9b-hexahydro-1H-pyrrolo[3,2-c]quinolin-1-yl]carbonyl}cyclohexyl)urea], less than 1 nM; that for `CCOC(=O)c1ccc(NC(=O)N[C@@H]2CCCC[C@@H]2C(=O)N2CC[C@@H]3[C@H](c4ccccc4)Nc4ccccc4[C@@H]32)cc1` [Example 159, Ethyl 4-({[((1R,25)-2-{[(3aR,4R,9bR)-4-phenyl-2,3,3a,4,5,9b-hexahydro-1H-pyrrolo[3,2-c]quinolin-1-yl]carbonyl}cyclohexyl)amino]carbonyl}amino)benzoate], less than 10 nM.
In the case of `COC[C@@H]1Nc2ccccc2[C@H]2[C@@H]1CCN2C(=O)[C@H]1CCCC[C@H]1NC(=O)c1ccc(-n2cncn2)cc1` [Example 265, N-((1R,2S)-2-{[(3aR,4R,9bR)-4-(Methoxymethyl)-2,3,3a,4,5,9b-hexahydro-1H-pyrrolo[3,2-c]quinolin-1-yl]carbonyl}cyclohexyl)-4-(1H-1,2,4-triazol-1-yl)benzamide], the concentration for half-maximal inhibition (IC50) is less than 1 nM.
`O=C(/C=C/c1ccc(F)cc1)N[C@@H]1CCCC[C@@H]1C(=O)N1CC[C@@H]2[C@H](c3ncc[nH]3)Nc3ccccc3[C@@H]21` [Example 297, (2E)-3-(4-Fluorophenyl)-N-((1R,2S)-2-{[(3aR,4R,9bR)-4-(1H-imidazol-2-yl)-2,3,3a,4,5,9b-hexahydro-1H-pyrrolo[3,2-c]quinolin-1-yl]carbonyl}cyclohexyl)acrylamide] had an IC50 of less than 1 nM.
The result for `O=C(N[C@@H]1CCCC[C@@H]1C(=O)N1CC[C@@H]2[C@H](c3ccccc3)Nc3ccccc3[C@@H]21)c1ccc(C(F)(F)F)cc1` [Example 87, N-((1R,2S)-2-{[(3aR,4R,9bR)-4-Phenyl-2,3,3a,4,5,9b-hexahydro-1H-pyrrolo[3,2-c]quinolin-1-yl]carbonyl}cyclohexyl)-4-(trifluoromethyl)benzamide] reads less than 10 nM.
Consider `COC[C@@H]1Nc2ccccc2[C@H]2[C@@H]1CCN2C(=O)[C@H]1CCCC[C@H]1NC(=O)c1ccc(N2CCOCC2)nc1` [Example 286, N-((1R,2S)-2-{[(3aR,4R,9bR)-4-(Methoxymethyl)-2,3,3a,4,5,9b-hexahydro-1H-pyrrolo[3,2-c]quinolin-1-yl]carbonyl}cyclohexyl)-6-morpholin-4-ylnicotinamide], for which the IC50 is less than 10 nM.
The result for `COC[C@@H]1Nc2ccccc2[C@H]2[C@@H]1CCN2C(=O)[C@H]1CCCC[C@H]1NC(=O)c1ccc(-n2cccc2)cc1` [Example 258, N-((1R,2S)-2-{[(3aR,4R,9bR)-4-(Methoxymethyl)-2,3,3a,4,5,9b-hexahydro-1H-pyrrolo[3,2-c]quinolin-1-yl]carbonyl}cyclohexyl)-4-(1H-pyrrol-1-yl)benzamide] reads less than 1 nM.
The compound `COC[C@@H]1Nc2ccccc2[C@H]2[C@@H]1CCN2C(=O)[C@H]1CCCC[C@H]1NC(=O)c1ccc2[nH]ccc2c1` [Example 218, N-((1R,2S)-2-{[(3aR,4R,9bR)-4-(Methoxymethyl)-2,3,3a,4,5,9b-hexahydro-1H-pyrrolo[3,2-c]quinolin-1-yl]carbonyl}cyclohexyl)-1H-indole-5-carboxamide] came in with an IC50 of less than 1 nM.
The result for `N#Cc1ccc(NC(=O)N[C@@H]2CCCC[C@@H]2C(=O)N2CC[C@@H]3[C@H](c4ncc[nH]4)Nc4ccccc4[C@@H]32)cc1` [Example 307, N-(4-Cyanophenyl)-N′-((1R,2S)-2-{[(3aR,4R,9bR)-4-(1H-imidazol-2-yl)-2,3,3a,4,5,9b-hexahydro-1H-pyrrolo[3,2-c]quinolin-1-yl]carbonyl}cyclohexyl)urea] reads less than 1 nM; that for `COC[C@@H]1Nc2ccccc2[C@H]2[C@@H]1CCN2C(=O)[C@H]1CCCC[C@H]1NC(=O)c1cccc(N(C)C)c1` [Example 241, 3-(Dimethylamino)-N-((1R,2S)-2-{[(3aR,4R,9bR)-4-(methoxymethyl)-2,3,3a,4,5,9b-hexahydro-1H-pyrrolo[3,2-c]quinolin-1-yl]carbonyl}cyclohexyl)benzamide], less than 10 nM; that for `O=C(N[C@@H]1CCCC[C@@H]1C(=O)N1CC[C@@H]2[C@H](c3ccccc3)Nc3ccccc3[C@@H]21)c1ccccc1` [Example 58, N-{(1R,2S)-2-[((3aR,4R,9bR)-4-Phenyl-2,3,3a,4,5,9b-hexahydro-1H-pyrrolo[3,2-c]quinolin-1-yl)carbonyl]cyclohexyl}benzamide], less than 10 nM.
The same measure for `O=C(Nc1ccc(F)cc1)N[C@@H]1CCCC[C@@H]1C(=O)N1CC[C@@H]2[C@H](c3ncc[nH]3)Nc3ccccc3[C@@H]21` [Example 298, N-(4-Fluorophenyl)-N′-((1R,2S)-2-{[(3aR,4R,9bR)-4-(1H-imidazol-2-yl)-2,3,3a,4,5,9b-hexahydro-1H-pyrrolo[3,2-c]quinolin-1-yl]carbonyl}cyclohexyl)urea]: less than 1 nM; for `COC[C@@H]1Nc2ccccc2[C@H]2[C@@H]1CCN2C(=O)[C@H]1CCCC[C@H]1NC(=O)c1ccc(S(N)(=O)=O)cc1` [Example 245, 4-(Aminosulfonyl)-N-((1R,2S)-2-{[(3aR,4R,9bR)-4-(methoxymethyl)-2,3,3a,4,5,9b-hexahydro-1H-pyrrolo[3,2-c]quinolin-1-yl]carbonyl}cyclohexyl)benzamide]: less than 10 nM.
The compound `COC[C@@H]1Nc2ccccc2[C@H]2[C@@H]1CCN2C(=O)[C@H]1CCCC[C@H]1NC(=O)Nc1ccc(OC)c(C#N)c1` [Example 285, N-(3-Cyano-4-methoxyphenyl)-N′-((1R,2S)-2-{[(3aR,4R,9bR)-4-(methoxymethyl)-2,3,3a,4,5,9b-hexahydro-1H-pyrrolo[3,2-c]quinolin-1-yl]carbonyl}cyclohexyl)urea] showed a concentration for half-maximal inhibition (IC50) of less than 1 nM.
As to `O=C(NCCCO)N[C@@H]1CCCC[C@@H]1C(=O)N1CC[C@@H]2[C@H](c3ccccc3)Nc3ccccc3[C@@H]21` [Example 156, N-(3-Hydroxypropyl)-N′-((1R,2S)-2-{[(3aR,4R,9bR)-4-phenyl-2,3,3a,4,5,9b-hexahydro-1H-pyrrolo[3,2-c]quinolin-1-yl]carbonyl}cyclohexyl)urea], the IC50 is less than 10 nM.
With `CCC[C@@H]1Nc2ccccc2[C@H]2[C@@H]1CCN2C(=O)[C@H]1CCCC[C@H]1NC(=O)c1ccc(OC)cc1` [Example 194, 4-Methoxy-N-((1R,2S)-2-{[(3aR,4S,9bR)-4-propyl-2,3,3a,4,5,9b-hexahydro-1H-pyrrolo[3,2-c]quinolin-1-yl]carbonyl}cyclohexyl)benzamide], the 50% inhibitory concentration (IC50) was less than 1 nM.
